The text below walks through data of ChEMBL document CHEMBL3600292, “Anti-HIV screening for cell-penetrating peptides using chloroquine and identification of anti-HIV peptides derived from matrix proteins” (Bioorg Med Chem, 2015).

By EC50 is commonly meant the concentration needed to bring the measured effect to its halfway point. For orientation: CC50 means the concentration that lowers cell viability or growth by half.

Starred links: 1 amine or outer side, 2 acyl side, 3 side chain; linkers in the order of their positions; H or OH if unused. Positions of bridges follow the written chain, without caps; N, C: chain ends. Non-standard residues stand in square brackets, D forms with d. Residues, ends and D or L forms follow the SMILES beside them. Chains are numbered I, II in the order given. Orn = NCCC[C@H](N)C(=O)O; X1 = O=C(C[*:1])[*:2] Bounds are passed on as bounds.

For series [1], the system named is Human immunodeficiency virus 1. Put plainly: Antiviral activity against T-cell line-tropic HIV1 NL4-3 infected in human MT4 cells assessed as inhibition of virus-induced cytopathogenicity after 5 days by MTT assay. The series is classed as functional, organism-based. Particulars: Human immunodeficiency virus 1, NL4-3, MT4, 120 h. On the technique in general: Protection from cytopathic effect is a common read-out in antiviral testing.

Series [2] is described as follows: Cytotoxicity against human PM1 cells expressing CCR5 by MTT assay in presence of 5 uM of chloroquine. The series is classed as cell-based. On the technique in general: Formazan colour is commonly taken as a measure of viable cells.
Series [3] in a line: Cytotoxicity against human MT4 cells by MTT assay. The series is classed as cell-based.
A short description of series [4]: Cytotoxicity against human MT4 cells by MTT assay in presence of 5 uM of chloroquine. The series is classed as cell-based.
For series [5], the system named is Human immunodeficiency virus 1. Put plainly: Antiviral activity against macrophage-tropic HIV1 NL(AD8) infected in human PM1 expressing CCR5 cells assessed as inhibition of virus-induced cytopathogenicity after 5 days by MTT assay in presence of 5 uM of chloroquine. In kind it is functional, organism-based. To be noted: Human immunodeficiency virus 1, NL(AD8), PM1/CCR5, 120 h.

Series [6] deals with Human immunodeficiency virus 1. As to the kind of experiment: Antiviral activity against T-cell line-tropic HIV1 NL4-3 infected in human MT4 cells assessed as inhibition of virus-induced cytopathogenicity after 5 days by MTT assay in presence of 5 uM of chloroquine. In kind it is functional, organism-based. To be noted: Human immunodeficiency virus 1, NL4-3, MT4, 120 h.

Regarding `CC[C@H](C)[C@H](NC(=O)[C@@H](NC(=O)[C@H](CC(N)=O)NC(=O)[C@H](Cc1ccc(O)cc1)NC(=O)[C@H](CC(C)C)NC(=O)[C@H](CO)NC(=O)[C@H](CCCNC(=N)N)NC(=O)[C@H](CC(C)C)NC(=O)[C@H](CCC(=O)O)NC(=O)[C@H](CCC(=O)O)NC(=O)[C@H](CO)NC(C)=O)[C@@H](C)O)C(=O)N[C@@H](C)C(=O)N[C@H](C(=O)N[C@@H](CC(C)C)C(=O)N[C@@H](Cc1ccc(O)cc1)C(=O)NCC(=O)N[C@@H](CSCC(=O)N[C@@H](CCCNC(=N)N)C(=O)N[C@@H](CCCNC(=N)N)C(=O)N[C@@H](CCCNC(=N)N)C(=O)N[C@@H](CCCNC(=N)N)C(=O)N[C@@H](CCCNC(=N)N)C(=O)N[C@@H](CCCNC(=N)N)C(=O)N[C@@H](CCCNC(=N)N)C(=O)N[C@@H](CCCNC(=N)N)C(N)=O)C(N)=O)C(C)C`, the values for the EC50 in series [1], in series [5] and in series [6] were above 10 µM, above 13 µM and above 8700 nM, respectively. In addition, the CC50 in series [2] stood at 13 µM; in series [3], 10 µM; in series [4], 8.7 µM.

With `CC[C@H](C)[C@H](NC(=O)[C@@H](NC(=O)[C@H](CC(N)=O)NC(=O)[C@H](Cc1ccc(O)cc1)NC(=O)[C@H](CC(C)C)NC(=O)[C@H](CO)NC(=O)[C@H](CCCNC(=N)N)NC(=O)[C@H](CC(C)C)NC(=O)[C@H](CCC(=O)O)NC(=O)[C@H](CCC(=O)O)NC(C)=O)[C@@H](C)O)C(=O)N[C@@H](C)C(=O)N[C@H](C(=O)N[C@@H](CC(C)C)C(=O)N[C@@H](Cc1ccc(O)cc1)C(=O)N[C@@H](CO)C(=O)NCC(=O)N[C@@H](CSCC(=O)N[C@@H](CCCNC(=N)N)C(=O)N[C@@H](CCCN)C(=O)N[C@@H](CCCNC(=N)N)C(=O)N[C@@H](CCCN)C(=O)N[C@@H](CCCNC(=N)N)C(=O)N[C@@H](CCCN)C(=O)N[C@@H](CCCNC(=N)N)C(=O)N[C@@H](CCCN)C(N)=O)C(N)=O)C(C)C`, the results for the EC50 in series [1], in series [5] and in series [6] were above 9.3 µM, above 9.3 µM and above 10000 nM, respectively. Also, the CC50 in series [2] stood at 9.3 µM; in series [3] it was 9.3 µM; in series [4] it was 10 µM.

Consider `CC[C@H](C)[C@H](NC(=O)[C@@H](NC(=O)[C@H](CC(N)=O)NC(=O)[C@H](Cc1ccc(O)cc1)NC(=O)[C@H](CC(C)C)NC(=O)[C@H](CO)NC(=O)[C@H](CCCNC(=N)N)NC(=O)[C@H](CC(C)C)NC(=O)[C@H](CCC(=O)O)NC(C)=O)[C@@H](C)O)C(=O)N[C@@H](C)C(=O)N[C@H](C(=O)N[C@@H](CC(C)C)C(=O)N[C@@H](Cc1ccc(O)cc1)C(=O)N[C@@H](CO)C(=O)N[C@H](C(=O)NCC(=O)N[C@@H](CSCC(=O)N[C@@H](CCCNC(=N)N)C(=O)N[C@@H](CCCN)C(=O)N[C@@H](CCCNC(=N)N)C(=O)N[C@@H](CCCN)C(=O)N[C@@H](CCCNC(=N)N)C(=O)N[C@@H](CCCN)C(=O)N[C@@H](CCCNC(=N)N)C(=O)N[C@@H](CCCN)C(N)=O)C(N)=O)C(C)C)C(C)C`, for which the values for the EC50 in series [1], in series [5] and in series [6] were above 7.7 µM, 2.3 µM and 4500 nM, respectively. The CC50 in series [2] was found to be 8.4 µM; in series [3] it was 7.7 µM; in series [4], 8.1 µM.

For the compound `CC[C@H](C)[C@H](NC(=O)[C@@H](NC(=O)[C@H](CC(N)=O)NC(=O)[C@H](Cc1ccc(O)cc1)NC(=O)[C@H](CC(C)C)NC(=O)[C@H](CO)NC(=O)[C@H](CCCNC(=N)N)NC(=O)[C@H](CC(C)C)NC(C)=O)[C@@H](C)O)C(=O)N[C@@H](C)C(=O)N[C@H](C(=O)N[C@@H](CC(C)C)C(=O)N[C@@H](Cc1ccc(O)cc1)C(=O)N[C@@H](CO)C(=O)N[C@H](C(=O)N[C@@H](Cc1c[nH]cn1)C(=O)NCC(=O)N[C@@H](CSCC(=O)N[C@@H](CCCNC(=N)N)C(=O)N[C@@H](CCCN)C(=O)N[C@@H](CCCNC(=N)N)C(=O)N[C@@H](CCCN)C(=O)N[C@@H](CCCNC(=N)N)C(=O)N[C@@H](CCCN)C(=O)N[C@@H](CCCNC(=N)N)C(=O)N[C@@H](CCCN)C(N)=O)C(N)=O)C(C)C)C(C)C`, the results for the EC50 in series [1], in series [5] and in series [6] were above 8.5 µM, above 5.2 µM and 4600 nM, respectively. Also, the CC50 in series [2] was 5.2 µM; in series [3], 8.5 µM; in series [4], 10 µM.

With `CC[C@H](C)[C@H](NC(=O)[C@H](CCCCN)NC(=O)[C@@H](NC(=O)[C@H](CCC(N)=O)NC(=O)[C@H](CCCNC(=N)N)NC(=O)[C@H](C)NC(=O)[C@H](Cc1c[nH]cn1)NC(C)=O)[C@@H](C)O)C(=O)N[C@@H](Cc1ccc(O)cc1)C(=O)N[C@H](C(=O)N[C@H](C(=O)N[C@@H](CC(=O)O)C(=O)N[C@H](C(=O)N[C@@H](CC(C)C)C(=O)N[C@@H](CO)C(=O)N[C@H](C(=O)NCC(=O)N[C@@H](CSCC(=O)N[C@@H](CCCNC(=N)N)C(=O)N[C@@H](CCCN)C(=O)N[C@@H](CCCNC(=N)N)C(=O)N[C@@H](CCCN)C(=O)N[C@@H](CCCNC(=N)N)C(=O)N[C@@H](CCCN)C(=O)N[C@@H](CCCNC(=N)N)C(=O)N[C@@H](CCCN)C(N)=O)C(N)=O)C(C)C)C(C)C)C(C)C)[C@@H](C)CC` (I: Ac-HARQTKIYIVDVLSVGC-NH2 / II: R[Orn]R[Orn]R[Orn]R[Orn]-NH2; linker I:17-II:N via X1), the EC50 is above 8.2 µM in series [1], above 8.7 µM in series [5] and above 8200 nM in series [6]. For the same compound, the figures for the CC50 in series [2], in series [3] and in series [4] were 8.7 µM, 8.2 µM and 8.2 µM, respectively.

`CC[C@H](C)[C@H](NC(=O)[C@H](CCCNC(=N)N)NC(=O)[C@H](CCC(N)=O)NC(=O)[C@H](Cc1c[nH]cn1)NC(=O)[C@@H](NC(=O)[C@H](CO)NC(=O)[C@H](Cc1ccc(O)cc1)NC(=O)[C@H](CC(C)C)NC(=O)[C@@H](NC(=O)[C@H](C)NC(=O)[C@@H](NC(=O)[C@@H](NC(=O)[C@H](CC(N)=O)NC(=O)[C@H](Cc1ccc(O)cc1)NC(=O)[C@H](CC(C)C)NC(C)=O)[C@@H](C)O)[C@@H](C)CC)C(C)C)C(C)C)C(=O)NCC(=O)N[C@@H](CSCC(=O)N[C@@H](CCCNC(=N)N)C(=O)N[C@@H](CCCN)C(=O)N[C@@H](CCCNC(=N)N)C(=O)N[C@@H](CCCN)C(=O)N[C@@H](CCCNC(=N)N)C(=O)N[C@@H](CCCN)C(=O)N[C@@H](CCCNC(=N)N)C(=O)N[C@@H](CCCN)C(N)=O)C(N)=O` (I: Ac-LYNTIAVLYSVHQRIGC-NH2 / II: R[Orn]R[Orn]R[Orn]R[Orn]-NH2; linker I:17-II:N via X1): the EC50 in series [1] amounted to 6.3 µM; in series [5], 2.8 µM; in series [6], 640 nM. In addition, the results for the CC50 in series [2], in series [3] and in series [4] were 8.7 µM, 11 µM and 12 µM, respectively.

Regarding `CC[C@H](C)[C@H](NC(=O)[C@H](CCCNC(=N)N)NC(=O)[C@H](CCC(N)=O)NC(=O)[C@H](Cc1c[nH]cn1)NC(=O)[C@@H](NC(=O)[C@H](CO)NC(=O)[C@H](Cc1ccc(O)cc1)NC(=O)[C@H](CC(C)C)NC(=O)[C@@H](NC(=O)[C@H](C)NC(=O)[C@@H](NC(=O)[C@@H](NC(=O)[C@H](CC(N)=O)NC(C)=O)[C@@H](C)O)[C@@H](C)CC)C(C)C)C(C)C)C(=O)N[C@@H](CC(=O)O)C(=O)N[C@H](C(=O)NCC(=O)N[C@@H](CSCC(=O)N[C@@H](CCCNC(=N)N)C(=O)N[C@@H](CCCN)C(=O)N[C@@H](CCCNC(=N)N)C(=O)N[C@@H](CCCN)C(=O)N[C@@H](CCCNC(=N)N)C(=O)N[C@@H](CCCN)C(=O)N[C@@H](CCCNC(=N)N)C(=O)N[C@@H](CCCN)C(N)=O)C(=O)O)C(C)C` (I: Ac-NTIAVLYSVHQRIDVGC-OH / II: R[Orn]R[Orn]R[Orn]R[Orn]-NH2; linker I:17-II:N via X1), the EC50 was above 18 µM in series [1], 5.6 µM in series [5] and 2000 nM in series [6]. Further, the values for the CC50 in series [2], in series [3] and in series [4] were 17 µM, 18 µM and 18 µM, respectively.

Regarding `CC[C@H](C)[C@H](NC(=O)[C@@H](NC(=O)[C@H](CC(N)=O)NC(=O)[C@H](Cc1ccc(O)cc1)NC(=O)[C@H](CC(C)C)NC(=O)[C@H](CO)NC(=O)[C@H](CCCNC(=N)N)NC(C)=O)[C@@H](C)O)C(=O)N[C@@H](C)C(=O)N[C@H](C(=O)N[C@@H](CC(C)C)C(=O)N[C@@H](Cc1ccc(O)cc1)C(=O)N[C@@H](CO)C(=O)N[C@H](C(=O)N[C@@H](Cc1cnc[nH]1)C(=O)N[C@@H](CCC(N)=O)C(=O)NCC(=O)N[C@@H](CSCC(=O)N[C@@H](CCCNC(=N)N)C(=O)N[C@@H](CCCN)C(=O)N[C@@H](CCCNC(=N)N)C(=O)N[C@@H](CCCN)C(=O)N[C@@H](CCCNC(=N)N)C(=O)N[C@@H](CCCN)C(=O)N[C@@H](CCCNC(=N)N)C(=O)N[C@@H](CCCN)C(N)=O)C(N)=O)C(C)C)C(C)C` (I: Ac-RSLYNTIAVLYSVHQGC-NH2 / II: R[Orn]R[Orn]R[Orn]R[Orn]-NH2; linker I:17-II:N via X1), the EC50 in series [1] was 5.2 µM; in series [5], 1.3 µM; in series [6], 850 nM. Besides, the CC50 in series [2] stood at 8.2 µM; in series [3], 9.2 µM; in series [4] it was 9.2 µM.

`CC[C@H](C)[C@H](NC(=O)[C@@H](NC(=O)[C@H](CC(N)=O)NC(=O)[C@H](Cc1ccc(O)cc1)NC(=O)[C@H](CC(C)C)NC(=O)[C@H](CO)NC(C)=O)[C@@H](C)O)C(=O)N[C@@H](C)C(=O)N[C@H](C(=O)N[C@@H](CC(C)C)C(=O)N[C@@H](Cc1ccc(O)cc1)C(=O)N[C@@H](CO)C(=O)N[C@H](C(=O)N[C@@H](Cc1c[nH]cn1)C(=O)N[C@@H](CCC(N)=O)C(=O)N[C@@H](CCCNC(=N)N)C(=O)NCC(=O)N[C@@H](CSCC(=O)N[C@@H](CCCNC(=N)N)C(=O)N[C@@H](CCCN)C(=O)N[C@@H](CCCNC(=N)N)C(=O)N[C@@H](CCCN)C(=O)N[C@@H](CCCNC(=N)N)C(=O)N[C@@H](CCCN)C(=O)N[C@@H](CCCNC(=N)N)C(=O)N[C@@H](CCCN)C(N)=O)C(N)=O)C(C)C)C(C)C` (I: Ac-SLYNTIAVLYSVHQRGC-NH2 / II: R[Orn]R[Orn]R[Orn]R[Orn]-NH2; linker I:17-II:N via X1): the EC50 was above 4.8 µM in series [1], above 4.6 µM in series [5] and 1000 nM in series [6]. The values for the CC50 in series [2], in series [3] and in series [4] were 4.6 µM, 4.8 µM and 4.4 µM, respectively.
